Test system: gastric hypersecretion stimulated by pentagastrine (Heidenhein pouch dogs)
Experiment: Anti-secretory activity against pentagastrine-stimulated gastric hypersecretion in dogs fitted with the Heidenhein pouch
Type: in vivo, dog (mongrels)
Settings: for ED50 (dose which reduces the hourly acid output by 50% during the 3rd or 4th hour in relation to the second hour of perfusion): p.o., gelatine capsule, 1.5 h after start of pentagastrine perfusion, dogs, doses expressed as base
Description: The anti-secretory activity of the compounds of formula (I) according to the invention has been investigated in cases of gastric hypersecretion which has been stimulated by pentagastrine in dogs fitted with the Heidenhein pouch.
Three mongrels, fitted with the Heidenhein pouch and not having eaten for 18 hours, were given a veinous perfusion of […] pentagastrine, at a volume of 30 ml/hour for 4 hours. The secretion in the pouch was collected in a bottle which was changed every 15 minutes. 1.5 hours after commencement of the perfusion, the product to be investigated was administered orally in an h°000 gelatine-coated capsule. The effective dose 50% (ED50) is the dose which reduces the hourly acid output by 50% during the 3rd or 4th hour of the experiment in relation to the acid output of the second hour of perfusion. The doses are expressed as a product in basic form.

Compound | ED50 (dose which reduces the hourly acid output by 50% during the 3rd or 4th hour in relation to the second hour of perfusion) | activity compared with cimetidine (in words) (Heidenhein pouch dogs, oral, vs cimetidine)
CN(C)S(=O)(=O)c1ccc2c(c1)N(C1CN3CCC1CC3)c1ccccc1S2 (stereo not shown) [N,N-dimethyl-10-[1-aza-(2,2,2)-bicyclo-3-octyl]-10H-2-phenothiazinesulfonamide] | 1.25 mg/kg | 
CNS(=O)(=O)c1ccc2c(c1)N(C1CN3CCC1CC3)c1ccccc1S2 (stereo not shown) [Example 2, N-METHYL-10-[1-AZA-(2,2,2)-BICYCLO-3-OCTYL]-10H-2-PHENOTHIAZINESULFONAMIDE] | 0.7 mg/kg | more active than cimetidine
CN/C(=N/CCSCc1nc[nH]c1C)NC#N [Cimetidine] | 2.3 mg/kg | 

Source: patent publication US4451461A, “10-(1-Aza-[2,2,2)-bicyclo-3-octyl]-10H-2-phenothiazinesulfonamide and derivatives thereof” (Pharmindustrie, priority 1981, dated 1984)
